Measured values taken from patent US6448229B2, “Gamma secretase inhibitors” (Merck Sharp & Dohme Ltd., priority 2000, dated 2002).

System: Notch signalling
Test: Xenopus developmental assay for Notch activity (tail bud formation)
Type: in vivo, Xenopus laevis
Details: Xenopus embryos cultured with compound from stage 15 to stage 40
Protocol: The following assay was used to determine the effect of compounds on Notch signalling.
Xenopus embryos were cultured in 1/10 NAM [Beck & Slack, Development, 126, 1611-1620, 1999] supplemented with protease inhibitors ([…] stock in DMSO) from stage 15 [P. D. Nieuwkoop and J. Faber, Normal table of Xenopus laevis, Daudin 1967, Reprinted Garland 1994] (24 hours), to stage 40 (3 days). Control siblings were incubated in 1/10 NAM containing 0.05% DMSO. At 3 days they were fixed in batches of 20 and measured using a graduated eyepiece on a Wild dissecting microscope set to 25×. Each tadpole was measured from head to proctodaeum (head and trunk) and from proctodaeum to tail tip (tail). Tail buds were extirpated at stage 30 and cultured for 24 hours as described previously [Tucker & Slack, Development, 121, 249-262, 1995]. Somites were detected by staining with monoclonal antibody 12/101 [Kintner & Brockes, Nature, 308, 67-69, 1984], as described elsewhere [Tucker & Slack, 1995]. In situ hybridisation for Xhox3 has been previously described [Beck & Slack, Mech. Dev., 72, 41-52, 1998].

In the case of `CC(NC(=O)Cc1cc(F)cc(F)c1)C(=O)NC(C(=O)NCC1CN(c2ccccc2)CCO1)c1ccccc1` (mixture of isomers) [Example 1, 2-[2-(3,5-Difluorophenyl)acetylamino]-N-{phenyl[(4-phenylmorpholin-2-ylmethyl)carbamoyl]methyl}propionamide], the “inhibition of tail bud formation” value is reported as “did not significantly inhibit tail bud formation”.
